Several values for one entry are separate records, joined by “and”; a condition that tells them apart may be missing. Equal entries are not always repeated.
Legend:
Pten^fl/flMx-1-Cre mice = assay: Rapamycin given immediately after Pten deletion (pIpC) in Pten fl/fl Mx-1-Cre mice; type: in vivo; conditions: daily injections for 7 days after pIpC treatment
Procedure: Administration of polyinosine-polycytidine (pIpC) to induce Mx-1-Cre expression. pIpC (Sigma P-0913) was resuspended with DPBS at a concentration of 2 mg/ml and passed through a 0.22 uM filter (See, e.g., Mikkola et al., Nature 421, 54751 (2003)). Mice received 25 ug of pIpC/g of body mass every other day for 2 weeks.
(§1) Administration of Rapamycin.
(§2) Histopathology. Spleen, liver, and thymus samples were fixed in 10% neutral buffered formalin and paraffin embedded. Thin sections (5 μm) were cut on a microtome and stained with hematoxylin and eosin using standard protocols. Chloroacetate esterase staining was performed using a Leder stain kit (Sigma).
All 3 such mice in this experiment died within 3-4 weeks of pIpC treatment, with AML and ALL (FIG. 9c).

[1] = tested on: established leukemias (AML and ALL); assay: Rapamycin against established leukemias in mice transplanted with Pten fl/fl Mx-1-Cre bone marrow cells, starting 15 weeks after pIpC; type: in vivo; conditions: daily 4 mg/kg from 15 weeks after pIpC
Procedure: as §1, §2
To test if rapamycin was effective against established leukemias, mice that had been transplanted with Pten^fl/fl Mx-1-Cre bone marrow cells were treated with daily injections of vehicle or rapamycin, beginning 15 weeks after pIpC.
Mice that had been transplanted with 1×10^6 Pten^fl/fl Mx-1-Cre donor (CD45.2^+) bone marrow cells along with 0.5×10^6 control (CD45.1^+) bone marrow cells were treated with daily injections of vehicle or rapamycin (4 mg/kg), starting 15 weeks after pIpC treatment.

[2] = tested on: Flk2^−Sca-1^+Lin^−c-kit^+CD48^− cells (HSCs); conditions: mouse, in vivo
Description: Flow cytometry and the isolation of hematopoietic stem cells (HSCs). Bone marrow cells were flushed from long bones with Hank's buffered salt solution without calcium or magnesium, supplemented with 2% heat-inactivated calf serum (GIBCO, Grand Island, N.Y.; HBSS^+). Cells were triturated and filtered through a nylon screen (45 μm, Sefar America, Kansas City, Mo.) to obtain a single cell suspension. Flk2^−Sca-1^+ Lineage^− c-kit^+ CD48^− HSCs and Thy1.1^low Sca-1^+ Mac-1^low CD4^low B220 MPPs were isolated as previously described (See, e.g., Christensen and Weissman, Proc Natl Acad Sci USA 98, 14541-6 (2001); Kiel et al., Cell 121, 1109-21 (2005); Morrison and Weissman, Immunity 1, 661-673 (1994)). For isolation of Flk2^−Sca-1^+ Lineage c-kit^+ CD48^− HSCs, whole bone marrow cells were incubated with unconjugated monoclonal antibodies to lineage markers including B220 (6B2), CD3 (KT31.1), CD4 (GK1.5), CD5 (53-7.3), CD8 (53-6.7), Gr-1 (8C5), Mac-1 (M1/70) and Terl19. Following dilution, pelleted cells were resuspended in anti-rat IgG-specific F(ab)2 conjugated to phycoerythrin (PE; Jackson ImmunoResearch, West Grove, Pa.). […] When CD45.2^+ HSCs were analyzed, CD45.2 (104-FITC; BD PharMingen) and CD48 (HM48-1-PE, eBioscience) were used. […]
Cell cycle analysis. BrdU incorporation was measured by flow-cytometry (BD PharMingen). […]

CO[C@H]1C[C@@H]2CC[C@@H](C)[C@@](O)(O2)C(=O)C(=O)N2CCCC[C@H]2C(=O)O[C@H]([C@H](C)C[C@@H]2CC[C@@H](O)[C@H](OC)C2)CC(=O)[C@H](C)/C=C(\C)[C@@H](O)[C@@H](OC)C(=O)[C@H](C)C[C@H](C)/C=C/C=C/C=C/1C [Rapamycin]
bone marrow and spleen cellularity in control mice (Pten^fl/flMx-1-Cre mice): without significantly affecting | Bone marrow HSCs that were donor type, average ([1]; average of 3 mice): 39 ± 6% | Bone marrow HSCs that were donor type ([1]; individual mice, Pten-deficient donor (CD45.2+) HSCs, 4 mg/kg): 35% and 45% and 36% | HSC numbers in control mice [2]: without affecting | proliferation of HSCs from control littermates [2]: without affecting
